Data: ChEMBL document CHEMBL6087456 (J Med Chem, 2025)
≈ marks a conversion by molar mass, not a printed value. Calls of active or inactive are those of the source. The calls are words filed in the database; no cut-off is given here.

Assays:
[1] = target: T1, Dihydroorotate dehydrogenase (quinone), mitochondrial (Plasmodium falciparum (isolate 3D7), UniProt Q08210); assay: Inhibition of N-terminal His6-tagged recombinant Plasmodium falciparum DHODH (158 to 569 residues) N-terminally truncated soluble domain extracted from Escherichia coli phage resistant BL21-DE3 using CoQD/DHA/DCIP as substrates
T1 sequence (Q08210 whole entry): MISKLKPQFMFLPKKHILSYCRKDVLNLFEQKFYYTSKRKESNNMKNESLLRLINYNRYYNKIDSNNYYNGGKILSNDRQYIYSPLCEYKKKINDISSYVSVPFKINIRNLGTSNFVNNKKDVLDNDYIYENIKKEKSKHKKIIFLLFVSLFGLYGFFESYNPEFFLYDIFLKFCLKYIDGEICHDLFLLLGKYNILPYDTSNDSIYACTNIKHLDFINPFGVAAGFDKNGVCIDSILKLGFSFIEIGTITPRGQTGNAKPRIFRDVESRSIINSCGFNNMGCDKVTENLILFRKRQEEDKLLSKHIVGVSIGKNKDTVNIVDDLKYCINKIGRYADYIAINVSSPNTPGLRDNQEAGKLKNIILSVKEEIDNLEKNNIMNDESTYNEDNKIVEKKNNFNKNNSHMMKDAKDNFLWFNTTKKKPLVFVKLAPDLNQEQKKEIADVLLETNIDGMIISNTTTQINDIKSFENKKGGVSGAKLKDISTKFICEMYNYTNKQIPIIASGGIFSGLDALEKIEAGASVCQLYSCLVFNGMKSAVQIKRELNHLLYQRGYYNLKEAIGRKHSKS

[2] = target: Dihydroorotate dehydrogenase (quinone), mitochondrial (Homo sapiens, UniProt Q02127); assay: Inhibition of C-terminal His6-tagged recombinant human DHODH (29 to 395 residues) N-terminally truncated soluble domain extracted from Escherichia coli phage resistant BL21-DE3 using CoQD/DHA/DCIP as substrates
Chain of Dihydroorotate dehydrogenase (quinone), mitochondrial (Homo sapiens, UniProt Q02127) (Q02127 whole entry, the tested form may be a part): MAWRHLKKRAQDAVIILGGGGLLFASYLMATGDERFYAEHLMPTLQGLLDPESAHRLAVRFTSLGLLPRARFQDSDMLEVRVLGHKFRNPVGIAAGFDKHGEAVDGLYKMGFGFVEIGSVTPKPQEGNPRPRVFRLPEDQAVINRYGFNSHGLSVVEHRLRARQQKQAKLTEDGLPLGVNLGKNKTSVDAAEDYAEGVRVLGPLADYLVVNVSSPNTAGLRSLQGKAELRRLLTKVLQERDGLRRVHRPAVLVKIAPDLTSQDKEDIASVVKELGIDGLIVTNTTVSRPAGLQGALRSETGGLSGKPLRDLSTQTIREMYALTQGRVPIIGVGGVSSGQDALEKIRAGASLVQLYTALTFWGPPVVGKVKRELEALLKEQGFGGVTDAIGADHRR

[3] = Apparent half life in humanized SCID mouse model at 30 mg/kg, po; format: ADME, organism-based; conditions: in vivo, read-out: t1/2(app) (converted)
[4] = Plasma protein binding in human measured for 6 hrs by rapid equilibrium dialysis; format: ADME, cell-free
Cytochrome P450 2B6 = target: T2, Cytochrome P450 2B6 (Homo sapiens, UniProt P20813); assay: Time-dependent inhibition of CYP2B6 in human liver microsomes; format: ADME, Microsome
T2 sequence (P20813 whole entry): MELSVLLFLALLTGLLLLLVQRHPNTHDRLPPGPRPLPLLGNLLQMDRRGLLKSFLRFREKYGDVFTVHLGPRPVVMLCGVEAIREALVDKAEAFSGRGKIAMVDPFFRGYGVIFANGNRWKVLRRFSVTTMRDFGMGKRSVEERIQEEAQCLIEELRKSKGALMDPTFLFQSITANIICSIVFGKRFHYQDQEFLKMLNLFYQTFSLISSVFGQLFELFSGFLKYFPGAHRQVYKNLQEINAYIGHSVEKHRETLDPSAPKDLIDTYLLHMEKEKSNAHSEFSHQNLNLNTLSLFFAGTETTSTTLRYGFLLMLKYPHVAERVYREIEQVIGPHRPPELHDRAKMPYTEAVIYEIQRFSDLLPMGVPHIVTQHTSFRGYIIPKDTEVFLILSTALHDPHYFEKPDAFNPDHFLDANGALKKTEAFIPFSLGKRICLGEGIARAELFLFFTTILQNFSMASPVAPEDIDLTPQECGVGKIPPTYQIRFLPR

Cytochrome P450 1A2 [5] = target: T3, Cytochrome P450 1A2 (Homo sapiens, UniProt P05177); assay: Time-dependent inhibition of CYP1A2 in human liver microsomes; format: ADME, Microsome
T3 sequence (P05177 whole entry): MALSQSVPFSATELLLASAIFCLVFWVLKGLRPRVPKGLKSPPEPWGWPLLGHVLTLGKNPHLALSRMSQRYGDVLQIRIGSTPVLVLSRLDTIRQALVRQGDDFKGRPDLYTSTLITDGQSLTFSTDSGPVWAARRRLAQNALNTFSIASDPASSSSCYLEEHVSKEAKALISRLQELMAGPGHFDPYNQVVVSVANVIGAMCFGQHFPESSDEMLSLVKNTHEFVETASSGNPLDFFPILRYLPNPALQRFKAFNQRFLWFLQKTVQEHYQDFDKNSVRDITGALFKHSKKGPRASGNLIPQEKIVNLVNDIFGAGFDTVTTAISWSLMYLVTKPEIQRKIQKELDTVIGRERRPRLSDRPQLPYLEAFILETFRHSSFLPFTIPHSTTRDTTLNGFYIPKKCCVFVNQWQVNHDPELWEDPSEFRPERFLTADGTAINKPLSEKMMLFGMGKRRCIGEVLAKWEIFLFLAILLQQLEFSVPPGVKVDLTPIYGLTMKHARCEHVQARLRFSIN

Plasmodium falciparum [6] = assay: Antiparasitic activity against asexual blood stage Plasmodium falciparum 3D7 incubated for 72 hrs by SYBR Green assay; format: functional, organism-based; conditions: 3D7, 72 h
Cytochrome P450 2D6 [7] = target: T4, Cytochrome P450 2D6 (Homo sapiens, UniProt P10635); assay: Inhibition of CYP2D6 in human liver microsomes; format: ADME, Microsome
T4 sequence (P10635 whole entry): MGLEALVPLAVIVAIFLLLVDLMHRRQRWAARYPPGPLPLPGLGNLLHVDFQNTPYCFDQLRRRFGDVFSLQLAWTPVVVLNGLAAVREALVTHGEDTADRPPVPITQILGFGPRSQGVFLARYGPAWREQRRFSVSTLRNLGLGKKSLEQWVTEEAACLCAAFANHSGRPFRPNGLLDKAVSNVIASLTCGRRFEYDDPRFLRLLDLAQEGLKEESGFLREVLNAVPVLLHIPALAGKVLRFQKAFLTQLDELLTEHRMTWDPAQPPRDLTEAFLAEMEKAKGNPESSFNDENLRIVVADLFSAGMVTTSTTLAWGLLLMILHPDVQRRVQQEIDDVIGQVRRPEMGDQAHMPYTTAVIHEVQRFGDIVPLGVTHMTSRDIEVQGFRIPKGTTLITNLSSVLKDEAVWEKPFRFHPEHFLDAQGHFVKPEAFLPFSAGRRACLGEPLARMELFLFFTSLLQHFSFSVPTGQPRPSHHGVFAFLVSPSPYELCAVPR

Cytochrome P450 3A5 = Cytochrome P450 3A5 (Homo sapiens, UniProt P20815); assay: Time-dependent inhibition of CYP3A5 in human liver microsomes; format: ADME, Microsome
Chain of Cytochrome P450 3A5 (P20815 whole entry): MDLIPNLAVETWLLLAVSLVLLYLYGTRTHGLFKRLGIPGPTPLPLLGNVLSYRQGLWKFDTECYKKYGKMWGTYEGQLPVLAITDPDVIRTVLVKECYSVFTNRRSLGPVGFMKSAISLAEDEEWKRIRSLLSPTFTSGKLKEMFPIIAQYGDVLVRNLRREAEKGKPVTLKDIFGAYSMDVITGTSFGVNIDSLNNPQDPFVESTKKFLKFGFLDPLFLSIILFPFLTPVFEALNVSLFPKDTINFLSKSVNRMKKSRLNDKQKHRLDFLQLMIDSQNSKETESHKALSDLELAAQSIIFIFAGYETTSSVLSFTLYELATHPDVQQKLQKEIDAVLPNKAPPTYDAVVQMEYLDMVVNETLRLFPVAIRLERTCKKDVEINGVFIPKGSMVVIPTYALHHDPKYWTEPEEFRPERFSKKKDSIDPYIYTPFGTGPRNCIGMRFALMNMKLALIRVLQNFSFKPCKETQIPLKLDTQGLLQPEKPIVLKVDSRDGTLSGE

[8] = Protein binding in human hepatocytes; format: ADME, cell-based, Hepatocyte; conditions: read-out: PB (converted)
Plasmodium falciparum [9] = assay: Prevention of re-infection of new erythrocytes in humanized SCID mouse model infected with erythrocyte asexual stage Plasmodium falciparum 3D7 0087/N9 at 1 to 30 mg/kg administered once daily for 6 days; format: functional, organism-based; conditions: dose 1-30 mg/kg, time 6.0 day
[10] = Oral absorption in overnight-fasted male Sprague-Dawley rat at 3 mg/kg measured upto 72 hrs by LCMS analysis; format: ADME, organism-based; conditions: in vivo
[11] = Cytotoxicity against human HepG2 cells by Cell Titer Glo assay; format: toxicity, cell-based
[12] = Plasma protein binding in rat measured for 6 hrs by rapid equilibrium dialysis; format: ADME, cell-free
[13] = Oral bioavailability in overnight-fasted male Sprague-Dawley rat at 3 mg/kg measured upto 72 hrs by LCMS analysis; format: ADME, organism-based; conditions: in vivo
[14] = Kinetic solubility of compound at pH 6.5 measured after 30 mins by nephelometry; format: physicochemical; conditions: buffer, pH 6.5, read-out: Kinetic_solubility
[15] = Cytotoxicity against human Jurkat cells by Cell Titer Glo assay; format: toxicity, cell-based
Plasmodium falciparum [16] = assay: Prevention of terminal maturation of schizonts in humanized SCID mouse model infected with erythrocyte asexual stage Plasmodium falciparum 3D7 0087/N9 at 1 to 30 mg/kg administered once daily for 6 days; format: functional, organism-based; conditions: dose 1-30 mg/kg, time 6.0 day
Cytochrome P450 2C19 = Cytochrome P450 2C19 (Homo sapiens, UniProt P33261); assay: Time-dependent inhibition of CYP2C19 in human liver microsomes; format: ADME, Microsome
Chain of Cytochrome P450 2C19 (P33261 whole entry): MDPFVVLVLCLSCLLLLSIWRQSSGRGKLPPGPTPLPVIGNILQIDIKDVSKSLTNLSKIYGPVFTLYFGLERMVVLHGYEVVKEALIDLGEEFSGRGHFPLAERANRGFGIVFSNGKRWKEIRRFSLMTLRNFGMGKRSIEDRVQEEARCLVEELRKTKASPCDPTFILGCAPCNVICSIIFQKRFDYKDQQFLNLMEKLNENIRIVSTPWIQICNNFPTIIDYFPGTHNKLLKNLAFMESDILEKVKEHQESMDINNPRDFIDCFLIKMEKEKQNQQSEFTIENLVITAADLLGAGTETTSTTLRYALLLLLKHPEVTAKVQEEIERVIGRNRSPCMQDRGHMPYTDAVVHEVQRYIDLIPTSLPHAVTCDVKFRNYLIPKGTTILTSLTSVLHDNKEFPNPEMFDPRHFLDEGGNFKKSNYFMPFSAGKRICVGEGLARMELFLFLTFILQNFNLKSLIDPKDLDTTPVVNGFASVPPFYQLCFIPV

[17] = Metabolic stability in human liver microsomes assessed as intrinsic clearance at 0.5 uM incubated for 60 mins in presence of NADPH by tandem quadrupole-Time of Flight MS; format: ADME, Microsome; conditions: 1 h
Cytochrome P450 2D6 [18] = target: T4, Cytochrome P450 2D6; assay: Time-dependent inhibition of CYP2D6 in human liver microsomes; format: ADME, Microsome
Plasmodium falciparum [19] = assay: Antiparasitic activity against Plasmodium falciparum 3D7 assessed as lag time before killing at 10 times EC50 pretreated for 120 hrs followed by compound removal and replacement of media without compound measured after 28 days by cell killing assay; format: functional
Cytochrome P450 1A2 [20] = target: T3, Cytochrome P450 1A2; assay: Inhibition of CYP1A2 in human liver microsomes; format: ADME, Microsome

## Cn1nc2c(=O)n(C3CC3)cnc2c1[C@](O)(c1cnc(C(F)(F)F)c(Cl)c1)C(F)(F)F
[1]
  IC50: 0.015 µM
[2]
  IC50: > 30 µM
[3]
  half-life: 7.8 h
[4]
  PPB: 98.9%
Cytochrome P450 2B6
  TDI: Not_active
Cytochrome P450 1A2 [5]
  TDI: Not_active
Plasmodium falciparum [6]
  EC50: 0.001 µM
Cytochrome P450 2D6 [7]
  IC50: > 20 µM
Cytochrome P450 3A5
  TDI: Not_active
[8]
  fraction unbound: 0.535
Plasmodium falciparum [9]
  Activity: inactive
[10]
  Fa at 72 h: 100%
[11]
  CC50: > 20 µM
[12]
  PPB: 97.2%
[13]
  F: > 89%
[14]
  solubility kinetic at 0.5 h: 80 µM (≈ 37.4 µg/mL)
[15]
  CC50: > 20 µM
Plasmodium falciparum [16]
  Activity: inactive
Cytochrome P450 2C19
  TDI: Not_active
[17]
  intrinsic clearance (CLint): < 3 µL/min/mg
Cytochrome P450 2D6 [18]
  TDI: Not_active
Plasmodium falciparum [19]
  Time: ~26 h
Cytochrome P450 1A2 [20]
  IC50: > 20 µM
